From patent US20030087753A1, “System for microbial control of a fluid” (priority 2001, published 2003)

Legend:
[1] = Adsorption and release of various antibiotics on ultra-stable zeolite Y (USY); type: physicochemical; conditions: for Amount antibiotic in 20 mg zeolite/ml: USY suspended to 20 mg/ml; for Release concentration of antibiotic: dried USY suspended to 20 mg/ml in buffer; for Amount adsorbed antibiotic/mg zeolite: ultra-stable zeolite Y (USY), amount calculated
Procedure: This example illustrates adsorption and release of various antibiotics. Ultra-stable zeolite Y (USY) was incubated with various antibiotics and the amounts absorbed to the zeolite were calculated. Then the zeolite was dried and suspended to 20 mg/ml in buffer and the concentrations of released antibiotics in the solutions were determined.

[2] = Release of cephalothin from ultra-stable zeolite Y (USY) at pH 2.5 and pH 8.0; type: physicochemical; conditions: 20 mg/ml USY; 10 mM phosphate buffer pH 8.0 after 10 mM glycin pH 2.5
Procedure: This example illustrates release of cephalothin from ultra-stable zeolite Y (USY) and is described with reference to the diagram in FIG. 10.
Ultra-stable zeolite Y (USY) was incubated with the antibiotic cephalothin 5 mg/ml after which the zeolite was sucked dry and further dried in warm closet. Zeolite with adsorbed cephalothin was suspended repeatedly to 20 mg/ml in 10 mM glycin pH 2.5 (▪) and the concentration of cephalothin in the solutions was determined by absorbency measurement at 260 nm. Then the zeolite was suspended in 10 mM phosphate buffer pH 8.0 (●).

[3] = tested on: Staphylococcus aureus (ATCC 6538); experiment: Growth inhibition of Staphylococcus aureus by m-cresol adsorbed on zeolite USY (Eur. Pharm. efficacy of antimicrobial preservation); type: cell-based; conditions: 5 mg m-cresol/ml dissolved in water, positive control
Procedure: This example illustrates growth inhibition of Staphylococcus aureus (ATCC 6538), FU ml-1) after incubation with m-cresol adsorbed on zeolite. Test according to Eur. Pharm. nd Ed. VIII 14 (1992). Efficacy of antimicrobial preservation.
Ultra-stable zeolite Y (USY, 63-125 μm particles) was incubated with m-cresol […] after which the zeolite was sucked dry and further dried in warm closet overnight. Zeolite with adsorbed m-cresol was then suspended in PBS and was incubated with Staphylococcus aureus at 37° C. The concentration of m-cresol in the solution after the suspension of zeolite was 0.14 mg/ml.

Compound	Amount antibiotic in 20 mg zeolite/ml [1] [mg/mL]	Release concentration of antibiotic [1] [µg/mL]	Amount adsorbed antibiotic/mg zeolite [1] [mg]	further results
CC1(C)S[C@@H]2[C@H](NC(=O)[C@H](N)c3ccccc3)C(=O)N2[C@H]1C(=O)O [Ampicilin]	2.8	400	0.14	
CC(=O)OCC1=C(C(=O)O)N2C(=O)[C@@H](NC(=O)Cc3cccs3)[C@H]2SC1 [Cephalothin]	4.2	4.6	0.21	release of cephalothin from the zeolite on change of pH [2]: increased release
O=C(N[C@H](CO)[C@H](O)c1ccc([N+](=O)[O-])cc1)C(Cl)Cl [Chloramphemicol]	2.5	7	0.125	
Cc1cccc(O)c1 [Free m-cresol, m-cresol]				CFU/ml ([3]; incubation time 0 h): 5.9 × 10^6 CFU/ml; CFU/ml ([3]; incubation time 2 h): 1.2 × 10^2 CFU/ml; CFU/ml ([3]; incubation time 4 h): 24 CFU/ml; CFU/ml ([3]; incubation time 8 h): 3 CFU/ml; CFU/ml ([3]; incubation time 24 h): 0 CFU/ml; CFU/ml ([3]; incubation time 48 h): 0 CFU/ml
[H]/N=C(/N)N[C@H]1[C@H](O)[C@@H](O)[C@H](O[C@@H]2O[C@@H](C)[C@](O)(C=O)[C@H]2O[C@@H]2O[C@@H](CO)[C@H](O)[C@@H](O)[C@@H]2NC)[C@@H](N/C(N)=N\[H])[C@@H]1O [Streptomycin]	9.6	4800	0.48	
CN(C)[C@@H]1C(=O)C(C(N)=O)=C(O)[C@@]2(O)C(=O)C3=C(O)c4c(O)cccc4[C@@](C)(O)[C@H]3C[C@@H]12 [Tetracyclin]	1.8	220	0.09	
Gentamycin	3.6		0.18	
